Test results published in patent publication US20250382280A1, “PYRAZOLE DERIVATIVES FOR THE INHIBITION OF PHAGOCYTOSIS” (Canadian Blood Services, priority 2022, published 2025).
Where two headings read alike, the source gives them in different places.

Tested on: phagocytosis of anti-D-opsonized Rh(D+) red cells by monocytes
Test: monocyte monolayer assay (MMA), in vitro phagocytosis assay
Format: cell-based, human
Parameters: key to Phagocytic index (PI): number of phagocytosed RBCs per 100 monocytes
Settings: for Phagocytic index (PI): PI = (# of phagocytic red blood cells)/(300 monocytes) * 100; for inhibition at 5 µM / IC50 / EC50: Homo sapiens, Monocyte; for IC50 / EC50: dose-inhibitory response; for IC50: 0.5-100 μM, read-out: IC50 for inhibition of phagocytosis
Procedure: The MMA to screen compounds for their ability to inhibit phagocytosis was performed as previously described (Purohit, M. K. et al., Bioorg. Med. Chem. Lett. 2013; 23:2324-7; and Purohit, M. K. et al., Bioorg. Med. Chem. 2014; 22:2739-52.). Briefly, Mononuclear cells (PBMCs) were layered onto chamber slides and monocytes purified by adherence after 1 hr at 37° C. with 5% CO2. Drugs were solubilized in 100% DMSO and then diluted in Roswell Park Memorial Institute (RPMI) to the final concentration of 5 μM, as previously reported (8,9). Corresponding dimethyl sulfoxide (DMSO) volumes in RPMI medium were used as a control. After one hour, indicator Rh-positive red cells opsonized with anti-RhD were added to the chamber slides and then further incubated for 2 hours before fixing and counting phagocytosed red blood cells (RBCs) using phase-contrast microscopy. As a positive control for inhibition, Intravenous immunoglobulin (IVIg) was used, known to inhibit phagocytosis due to blocking of FcγRs. The phagocytosis index (PI) was determined as the number of phagocytosed RBCs in 100 monocytes. The percent inhibition of phagocytosis was determined by comparing the PI in each treated sample to the PI in the untreated sample, which was determined by normalizing the PI concentration in each treated sample (phagocytosis of opsonized RBCs with vehicle only, representing 100 percent phagocytosis.
Concentrations included 100 μM, 50 μM, 25 μM, 10 μM, 5 μM, 2.5 μM, 1 μM, and 0.5 μM.
The 80 selected pyrazole core compounds were screened using a concentration of 5 μM in the in vitro phagocytosis assay, referred to as the monocyte monolayer assay (MMA). Compounds were compared to a standard intravenous immunoglobulin (IVIg) at a concentration of 1 mg/mL.

[1] = 5 μM compound, screening of the 80 compounds, read-out: Average inhibition (% ± standard deviation)
[2] = 5 μM, anti-D-opsonized Rh(D+) red cells, read-out: Inhibition percentage

| SMILES | inhibition at 5 µM [1] | other results |
| --- | --- | --- |
| Nc1c(C(=O)O)cnn1-c1ccc(F)cc1F [KB-209] | 50 ± 1.02% | Phagocytic index (PI) (5 μM): 18; inhibition at 5 µM [2]: 50% |
| COc1ccc(NC(=O)c2cn(CCC#N)nc2-c2cccs2)cc1 [KB-166] | 17 ± 3.91% | – |
| N#CCCn1cc(C(=O)Nc2nccs2)c(-c2ccc3c(c2)OCCO3)n1 [KB-165] | 33 ± 5.3% | – |
| Cc1nn(C)c(C)c1-c1cc(C(=O)O)[nH]n1 [KB-189] | 52 ± 4.75% | Phagocytic index (PI) (5 μM): 30; inhibition at 5 µM [2]: 52% |
| Cc1cc(C)n(S(=O)(=O)c2ccccc2)n1 [KB-137] | 10 ± 1.21% | – |
| Cc1nn(C(=O)N(C)C)c(C)c1CN1C(=O)c2ccccc2C1=O [KB-174] | 39 ± 9.53% | – |
| CC(C)c1cc(C(=O)Nc2nnc(C3CCCO3)s2)n(-c2ccccc2)n1 (stereo not shown) [KB-206] | 50 ± 5.46% | Phagocytic index (PI) (5 μM): 18; inhibition at 5 µM [2]: 50% |
| CSc1cccc(NC(=O)c2cnn(C)c2-n2cccc2)c1 [KB-212] | 47 ± 9.67% | Phagocytic index (PI) (5 μM): 19; inhibition at 5 µM [2]: 47% |
| CCn1ncc(Br)c1C(=O)NC1CCCCC1 [KB-150] | 24 ± 8.58% | – |
| CC(=O)N1N=C(c2cccs2)CC1c1ccccc1C (stereo not shown) [KB-161] | 7 ± 8.43% | – |
| Cc1nn(-c2ccc3nnc(C)n3n2)c2c1C(c1cccs1)CC(=O)N2 (stereo not shown) [KB-190] | 56 ± 1.24% | Phagocytic index (PI) (5 μM): 27; inhibition at 5 µM [2]: 56% |
| Cc1cc(C)n(C(=O)c2ccoc2C)n1 [KB-142] | 11 ± 6.51% | – |
| CN(C)C(=O)c1cn(-c2ccccc2)nc1-c1ccccc1 [KB-132] | -9 ± 3.47% | – |
| Cc1cc(C)n(C(=O)COc2ccccc2C)n1 [KB-141] | 36 ± 9.37% | – |
| COc1ccccc1-c1cc(C(=O)Nc2c(C)n(C)n(-c3ccccc3)c2=O)no1 [KB-200] | 31 ± 1.84% | – |
| COC(=O)N1N=C(C2CCCCC2)CC1(O)C(F)(F)F (stereo not shown) [KB-158] | 0% | – |
| COc1cccc(-c2cc(C(=O)Nc3cc(C)nn3-c3ccccc3)on2)c1 [KB-195] | 25 ± 6.36% | – |
| Cn1ncc(Br)c1C(=O)N1CCCC1c1ccc(F)cc1 (stereo not shown) [KB-192] | -29 ± 9.54% | – |
| COc1cc(S(=O)(=O)n2cccn2)c(OC)cc1Cl [KB-176] | -10 ± 7.06% | – |
| Cc1coc(C)c1C1=NN(S(C)(=O)=O)C(c2cccs2)C1 (stereo not shown) [KB-175] | 50 ± 1.45% | Phagocytic index (PI) (5 μM): 15; inhibition at 5 µM [2]: 50% |
| CCOc1ccc(NC(=O)c2cnn(-c3ccccc3)c2NC(=O)c2ccco2)cc1 [KB-140] | 31 ± 7.84% | – |
| COC(=O)c1n[nH]c(N)c1Cl [KB-134] | 9 ± 6.99% | – |
| Cc1cc(NC(=O)c2cnn3c2NC(c2ccco2)CC3C(F)(F)F)n(-c2ccccc2)n1 (stereo not shown) [KB-168] | 23 ± 3.86% | – |
| Cc1[nH]n(-c2ccccc2)c(=O)c1C1(C(F)(F)F)C(=O)Nc2c1c(=O)[nH]c(=O)n2Cc1ccccc1 (stereo not shown) [KB-167] | 53 ± 4.18% | Phagocytic index (PI) (5 μM): 14; inhibition at 5 µM [2]: 53% |
| CCc1ccc(C2CC(c3ccccc3)=NN2S(C)(=O)=O)cc1 (stereo not shown) [KB-155] | 8 ± 9.35% | – |

| SMILES | inhibition at 5 µM [1] | other results |
| --- | --- | --- |
| Cc1ccccc1C1CCCN1C(=O)Cn1nc(C(F)(F)F)cc1C (stereo not shown) [KB-196] | 24 ± 5.76% | – |
| CCOC(=O)c1cnn(-c2ccccc2)c1NC(=O)CSc1nc(SC)ns1 [KB-171] | 7 ± 0.39% | – |
| Cc1nn(-c2ccccc2)c2sc(C(=O)NCCO)cc12 [KB-136] | -4 ± 1.82% | – |
| Cc1nn(C)cc1S(=O)(=O)NCc1ccccc1Cl [KB-180] | -42 ± 8.81% | – |
| Cc1cc2c(cc1C)NC(c1c(C)n(C)n(-c3ccccc3)c1=O)C1=C(CC(C)(C)CC1=O)N2 (stereo not shown) [KB-153] | 8 ± 8.3% | – |
| CCn1cc(Br)c(C(=O)Nc2cc(Cl)ccc2OC)n1 [KB-146] | 10 ± 9.56% | – |
| COc1ccc(CNC(=O)c2c(Cl)cnn2C)cc1OC [KB-178] | 53 ± 5.11% | Phagocytic index (PI) (5 μM): 29; inhibition at 5 µM [2]: 53% |
| CCOC(=O)c1cnn(-c2ccccc2)c1NC(=O)Cc1cccc(OC)c1 [KB-159] | 15 ± 8.4% | – |
| O=c1cc(CSc2nc3ccccc3s2)[nH]c2[nH]n(-c3ccccc3)c(=O)c12 [KB-191] | -23 ± 7.85% | – |
| N#CCCn1cc(C(N)=O)c(-c2cccc(Cl)c2)n1 [KB-164] | -3 ± 9.7% | – |
| CNC(=O)c1cc(-c2cccs2)[nH]n1 [KB-202] | 33 ± 2.31% | – |
| COc1cc(-c2cc[nH]n2)cc(OC)c1OC [KB-194] | 39 ± 4.96% | – |
| O=C(Nc1nccs1)c1cnn(-c2ccccc2)c1-n1cccc1 [KB-210] | 69 ± 5.32% | Phagocytic index (PI) (5 μM): 11; IC50: 22.1 µM; inhibition at 5 µM [2]: 69%; EC50: > 10 µM |
| Cn1ncc(Br)c1C(=O)Oc1ccccc1Cl [KB-147] | 0% | – |
| O=C(Nc1ccncc1)c1cc(C2CC2)nn1-c1ccccc1 [KB-204] | 36 ± 3.6% | – |
| COc1ccccc1-n1nc(C(C)=O)c(C(C)=O)c1C [KB-187] | -16 ± 9.33% | – |
| CC(=O)n1nc(C)c(S(=O)(=O)N2CCCC2)c1C [KB-188] | -26 ± 7.94% | – |
| O=C(NCc1ccncc1)c1cnn(-c2ccccc2F)c1-n1cccc1 [KB-203] | 27 ± 2.72% | – |
| Cc1cc(-c2ccco2)n(-c2ccccc2)n1 [KB-135] | 18 ± 2.7% | – |
| CC(CCc1ccccc1)NC(=O)c1cnn(C)c1-n1cccc1 (stereo not shown) [KB-205] | 47 ± 0.98% | Phagocytic index (PI) (5 μM): 19; inhibition at 5 µM [2]: 47% |
| CN(C)CCNC(=O)c1cc(-c2ccc(Cl)cc2)nn1-c1ccccc1 [KB-201] | 0% | – |
| CCOC(=O)c1cnn(C)c1NC(=O)C(CC)Sc1cc(C)ncn1 (stereo not shown) [KB-184] | 7 ± 2.92% | – |
| CCOC(=O)c1cnn(-c2nc3sc4c(c3c(=O)[nH]2)CCCC4)c1N [KB-162] | -37 ± 2.59% | – |
| CCOC(=O)c1cnn(-c2ncnc3c2cnn3-c2ccc(F)cc2)c1N [KB-199] | 40 ± 5.46% | Phagocytic index (PI) (5 μM): 40; inhibition at 5 µM [2]: 40% |
| Cc1cccc(OCCCc2c(C)n[nH]c2C)c1C [KB-139] | 6 ± 3.48% | – |

| SMILES | inhibition at 5 µM [1] | other results |
| --- | --- | --- |
| Cc1sc2ncnc(-n3ncc(C#N)c3N)c2c1C [KB-143] | 10 ± 6.87% | – |
| COc1ccc(-c2cc(C(=O)O)nn2C2CCS(=O)(=O)C2)cc1 (stereo not shown) [KB-185] | -3 ± 3.6% | – |
| CCn1nccc1C1CCCN1S(=O)(=O)c1cc(C)ccc1C (stereo not shown) [KB-198a] | – | IC50: 227 µM |
| Cn1cc(Cl)c(C(=O)Nc2ccc(F)cc2F)n1 [KB-148] | 28 ± 9.62% | – |
| Cc1c(NC(=O)c2ccn3c(C(F)(F)F)cc(-c4ccccc4)nc23)c(=O)n(-c2ccccc2)n1C [KB-169] | 0% | – |
| Cc1n[nH]c(C)c1Sc1ccc(Cl)cc1 [KB-138] | 38 ± 6.56% | – |
| CCOC(=O)c1c(C)nn(-c2nc(C)cc(C)n2)c1N [KB-181] | -11 ± 10.3% | Phagocytic index (PI) (5 μM): 37; inhibition at 5 µM [2]: 45% |
| CCc1cccc(NS(=O)(=O)c2cnn(CC)c2C)c1 [KB-177] | 4 ± 9.76% | – |
| COc1ccc(C2=NN(C(C)=O)C(c3ccco3)C2)cc1OC (stereo not shown) [KB-154] | 2 ± 5.19% | – |
| Cc1c(S(=O)(=O)N2CCCC2c2ccccc2Cl)cnn1C(F)F (stereo not shown) [KB-197] | 45 ± 4.97% | – |
| CCOC(=O)c1c(N)nn(C(=O)CC)c1-c1ccccc1 [KB-156] | 2 ± 6.64% | – |
| Cc1c(NC(=O)CSc2nc3c(c(=O)[nH]2)CCC3)c(=O)n(-c2ccccc2)n1C [KB-186] | 55 ± 8.43% | Phagocytic index (PI) (5 μM): 28; inhibition at 5 µM [2]: 55% |
| Cn1ncc(I)c1C(=O)Nc1cccc2ccccc12 [KB-160] | -2 ± 5.32% | – |
| CCn1nccc1C1CCCN1S(=O)(=O)c1cc(C)c(C)cc1C (stereo not shown) [KB-198] | 75 ± 4.76% | Phagocytic index (PI) (5 μM): 9; IC50: 8.43 µM; inhibition at 5 µM [2]: 75%; EC50: > 10 µM |
| COc1ccc(-c2nc(-n3c(C)c(C(C)=O)c(C(C)=O)c3C)sc2C)cc1OC [KB-152] | 2 ± 8.84% | – |
| Cc1cc(=O)n(CCN2CCOCC2)c2c1c(C)nn2-c1ccccc1 [KB-183] | -28 ± 9.96% | – |
| Cc1c(Nc2ncnc3c2cnn3-c2ccccc2)c(=O)n(-c2ccccc2)n1C [KB-149] | 0% | – |
| Cc1ccc2nc(-c3ccc4c(c3)OCO4)cc(C(=O)Nc3c(C)n(C)n(-c4ccccc4)c3=O)c2c1 [KB-163] | -30 ± 1.77% | – |
| COc1ccc(-c2cc(C(=O)NCCc3c[nH]c4ccccc34)[nH]n2)cc1 [KB-213] | 64 ± 8.74% | Phagocytic index (PI) (5 μM): 13; inhibition at 5 µM [2]: 64% |
| COc1ccc(S(=O)(=O)n2cccn2)cc1C(C)(C)C [KB-173] | -8 ± 8.88% | – |
| Cn1ccc(C(=O)Nc2ccc3c(c2)OCCO3)n1 [KB-182] | 55 ± 3.65% | Phagocytic index (PI) (5 μM): 28; inhibition at 5 µM [2]: 55% |
| CSc1nc2ccc(S(=O)(=O)Nc3c(C)n(C)n(-c4ccccc4)c3=O)cc2s1 [KB-170] | -13 ± 4.31% | – |
| CCOC(=O)C1=NNC2C(=O)N(CC)C(=O)C12 (stereo not shown) [KB-133] | 24 ± 8.98% | – |
